Laboratory results published in patent publication US9868724B2, “Compounds” (GLAXOSMITHKLINE INTELLECTUAL PROPERTY DEVELOPMENT LIMITED, priority 2014, dated 2018).

Key:
[1] = molecular target: T1, RORγ ligand binding domain (RORγ-LBD) (Homo sapiens, UniProt P51449); assay: Dual Fluorescence Energy Transfer (FRET) Assay; format: biochemical; details: mean pIC50 of multiple test results if tested more than once; RORγ-LBD/SRC1(2) peptide interaction
T1 construct: modified polyhistidine tag MKKHHHHHHLVPRGS (N); made in house; host or cells: E. coli BL21(DE3)
T1 sequence (P51449 263-518): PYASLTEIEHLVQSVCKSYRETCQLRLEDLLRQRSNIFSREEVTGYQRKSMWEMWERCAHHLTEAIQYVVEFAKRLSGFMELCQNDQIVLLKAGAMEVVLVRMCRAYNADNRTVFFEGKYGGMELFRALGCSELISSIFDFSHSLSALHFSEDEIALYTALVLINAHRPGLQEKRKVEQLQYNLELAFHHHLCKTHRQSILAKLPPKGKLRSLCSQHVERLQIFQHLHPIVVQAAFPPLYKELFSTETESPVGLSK
From the text: This assay is based on the knowledge that nuclear receptors interact with cofactors (transcription factors) in a ligand dependent manner. RORγ is a typical nuclear receptor in that it has an AF2 domain in the ligand binding domain (LBD) which interacts with co-activators. The sites of interaction have been mapped to the LXXLL motifs in the co-activator SRC1(2) sequences. Short peptide sequences containing the LXXLL motif mimic the behavior of full-length co-activator.
The assay measures ligand-mediated interaction of the co-activator peptide with the purified bacterial-expressed RORγ ligand binding domain (RORγ-LBD) to indirectly assess ligand binding. RORγ has a basal level of interaction with the co-activator SRC1(2) in the absence of ligand, thus it is possible to find ligands that inhibit or enhance the RORγ/SRC1(2) interaction.
Human RORγ Ligand Binding Domain (RORγ-LBD) was expressed in E. coli strain BL21(DE3) as an amino-terminal polyhistidine tagged fusion protein. DNA encoding this recombinant protein was sub-cloned into a modified pET21a expression vector (Novagen). […]
Approximately 50 g E. coli cell pellet was resuspended in 300 mL of lysis buffer (30 mM imidazole pH 7.0 and 150 mM NaCl). […] After washing to baseline absorbance with the equilibration buffer, the column was developed with a gradient from 30 to 500 mM imidazole pH 7.0. […]

RORγ = molecular target: T2, RORγ (Homo sapiens, UniProt P51449); assay: Jurkat Cell Luciferase Assay; format: cell-based; details: mean pIC50 of multiple test results if tested more than once; Jurkat cells, human IL17 promoter luciferase reporter, RORγt overexpression
T2 construct: expressed in transfected cells
T2 sequence (P51449 1-497 isoform P51449-2): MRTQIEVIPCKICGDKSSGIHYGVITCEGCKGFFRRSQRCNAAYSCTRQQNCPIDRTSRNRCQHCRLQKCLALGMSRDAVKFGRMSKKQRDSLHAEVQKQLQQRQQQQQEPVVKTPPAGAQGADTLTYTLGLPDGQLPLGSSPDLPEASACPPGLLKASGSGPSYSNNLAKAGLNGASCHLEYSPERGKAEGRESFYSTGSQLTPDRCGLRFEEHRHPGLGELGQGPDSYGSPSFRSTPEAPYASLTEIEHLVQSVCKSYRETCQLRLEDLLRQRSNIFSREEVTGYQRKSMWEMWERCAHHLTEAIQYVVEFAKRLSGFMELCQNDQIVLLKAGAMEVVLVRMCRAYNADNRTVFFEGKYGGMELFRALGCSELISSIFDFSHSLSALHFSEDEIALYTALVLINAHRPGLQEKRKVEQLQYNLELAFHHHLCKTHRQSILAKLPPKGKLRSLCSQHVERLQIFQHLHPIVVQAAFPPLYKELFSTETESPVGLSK
From the text: RORγ is known to bind to a CNS (conserved non-coding sequences) enhancer element in the IL17 promoter. In this assay, RORγ activity is indirectly assessed using a luciferase reporter construct which contains the human IL17 promoter having the RORγ-specific CNS enhancer element. Inhibition of RORγ activity by a compound will result in a decrease in luciferase activity of Jurkat cells transfected with the reporter construct.
For the luciferase reporter plasmid, the 3 Kb human IL17 promoter containing the RORγ-specific CNS enhancer element was PCR amplified from human genomic DNA and cloned into a pGL4-Luc2/hygro reporter plasmid sequentially as XhoI-HindIII (1.1 Kb) and KpnI-XhoI (1.9 Kb) fragments. For the 1.1 Kb fragment, PCR was used to amplify human IL17 proximal promoter region from genomic DNA of 293T cells using primers as follows: forward primer, 5′-[…]-3′ (XhoI site is underlined) and reverse primer, 5′-[…]-3′ (HindIII site is underlined). The 1.1 kb DNA bands were excised, purified, and inserted into pMD19-T Simple Vector (Takara). […]
Compounds were dissolved in DMSO at three concentrations, 10 mM, 400 uM and 16 uM, and were dispensed into 384-wells assay plate at 40 nl, 12.5 nl, 5 nl respectively. The volume was adjusted with pure DMSO to a give a final uniform volume of 40 nl Jurkat cells described above were counted and centrifuged. […]

Mouse CD4+ cells = assay: Th17 Cell Differentiation Assay; format: cell-based; details: mean pIC50 of multiple test results if tested more than once, IL-17 ELISA
Description: Mouse CD4+ cells were purified using the CD4+ T Cell Isolation II Kit according to manufacturer's instructions (Miltenyi Biotec). 96 well plates were pre-coated with anti-mCD3 antibody. Un-coated wells were used as controls. CD4+ Cells were resuspended in RPMI 1640 complete medium and were added to the 96-well plates. Cytokine cocktail and the compound were then added to the wells. Antibodies and cytokines (all from R&D Systems) used in the assay were selected from the following: anti-mCD3; anti-mCD28; anti-mIFNγ; anti-mIL4; mIL-6; mIL-23; mIL-1β; hTGF-β1. The culture was incubated at 37° C. for 3 days and supernatants were collected for ELISA. The IL-17 ELISAs were performed according to manufacturer's instructions (R&D Systems). The results were analyzed using Prism software with non-linear regression to determine pIC50.
The Th17 differentiation culture described above was maintained for 5 days and cells were analyzed by IL-17 and IFN-γ intracellular staining according to manufacturer's instructions (BD Biosciences).

RORγ-LBD = molecular target: T3, RORγ-LBD (Homo sapiens, UniProt P51449); assay: Fluorescence Energy Transfer (FRET) Assay; format: biochemical; details: mean pIC50 of multiple test results if tested more than once; SRC1/RORγ-LBD with 0.2 μM surrogate agonist
T3 construct: adding an appropriate amount of biotinylated RORγ-LBD and APC-labeled streptavidin
T3 sequence (P51449 269-508 limits assumed): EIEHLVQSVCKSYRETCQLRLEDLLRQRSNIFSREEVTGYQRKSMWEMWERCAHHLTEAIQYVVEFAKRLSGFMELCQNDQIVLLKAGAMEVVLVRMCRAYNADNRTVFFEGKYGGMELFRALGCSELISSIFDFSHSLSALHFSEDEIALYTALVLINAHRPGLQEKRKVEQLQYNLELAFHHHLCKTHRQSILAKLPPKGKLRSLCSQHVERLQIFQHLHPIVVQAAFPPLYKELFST
Description: The assays were performed in an assay buffer consisting of 50 mM NaF, 50 mM 3-(N-morpholino)propanesulfonic acid, pH 7.5, 50 μM 3-[(3-cholamidopropyl)dimethylammonio]-propanesulfonate, 0.1 mg/mL bovine serum albumin, and 10 mM dithiothreitol in 384-well plates (Greiner 784076, Longwood, Fla.). The total volume was 10 μL/well. The europium-labeled SRC1 solution was prepared by adding an appropriate amount of biotinylated SRC and europium labeled streptavidin (PerkinElmer Life and Analytical Sciences, Waltham, Mass.) into assay buffer, with final concentrations of 27 and 3.3 nM, respectively. The allophycocyanin (APC)-labeled-LBD solution was prepared by adding an appropriate amount of biotinylated RORγ-LBD and APC-labeled streptavidin (CR130-100; PerkinElmer Life and Analytical Sciences) at a final concentration of 33 nM each. After 15 min of incubation at room temperature, a 20-fold excess of biotin was added to block the remaining free streptavidin. […] The plates were incubated for 1 h at room temperature and then read on ViewLux (PerkinElmer Life and Analytical Sciences) in LANCE mode configured for europeum-APC labels. Data were collected and analyzed by Activitybase.

IC50 [1] [nM] | IC50 (RORγ) [nM] | IC50 (Mouse CD4+ cells) [nM] | IC50 (RORγ-LBD) [nM] | SMILES
~794 | ~12.6 | ~17.4 | ~251 | Cc1ncc(C(=O)Nc2cc(Cl)cc(CN3CCN(C(=O)[C@@H]4CCOC4)[C@@H](C)C3)c2C)cc1C#N (single isomer, unassigned) [Example 91]
~200 | ~25.1 | ~81.3 | ~126 | Cc1ncc(C(=O)Nc2cc(Cl)cc(CN3CCN(C(=O)[C@H]4CCOC4)[C@@H](C)C3)c2C)cc1F [Example 57, N-(5-chloro-2-methyl-3-(((S)-3-methyl-4-((S)-tetrahydrofuran-3-carbonyl)piperazin-1-yl)methyl)phenyl)-5-fluoro-6-methylnicotinamide]
